From patent publication US10364247B2, “Preparation and use of novel protein kinase inhibitors” (Ruijin Hospital Affiliated to Shanghai Jiao Tong University …, priority 2015, dated 2019)

Assays:
[1] = target: T1, RSK4(Kin.Dom.2-C-terminal) (Homo sapiens, UniProt Q9UK32); experiment: KINOMEscan competition binding; conditions: RSK4(Kin.Dom.2-C-terminal) (Entrez RPS6KA6), read-out: Percent Control
T1 construct: RSK4(Kin.Dom.2-C-terminal)
Procedure: (§1) KINOMEscan™ is based on a competition binding assay that quantitatively measures the ability of a compound to compete with an immobilized, active-site directed ligand (Fabian et al. (2005) Nat. Biotechnol. 23, 329; Karaman et al. (2008) Nat. Biotechnol. 26, 127). The compound was screened at 10 μM, and results for primary screen binding interactions are reported as ‘% Ctrl’, where lower numbers indicate stronger hits. The results for kinases targets with a % Ctrl less than 30 can be seen in Table 2.

[2] = target: ABL1(E255K)-phosphorylated (Homo sapiens, UniProt P00519, E255K); experiment: KINOMEscan competition binding; conditions: read-out: Percent Control
Procedure: as §1

ABL1-nonphosphorylated = ABL1-nonphosphorylated (Homo sapiens, UniProt P00519); experiment: KINOMEscan competition binding; conditions: read-out: Percent Control
Procedure: as §1

ABL2 = target: T2, ABL2 (Homo sapiens, UniProt P42684); experiment: KINOMEscan competition binding; conditions: read-out: Percent Control
T2 construct: purchased KINOMEscan (panel service)
Procedure: as §1

MEK4 = MEK4 (Homo sapiens, UniProt P45985); experiment: KINOMEscan competition binding; conditions: MEK4 (Entrez MAP2K4), read-out: Percent Control
Procedure: as §1

TAOK3 = target: T3, TAOK3 (Homo sapiens, UniProt Q9H2K8); experiment: KINOMEscan competition binding; conditions: read-out: Percent Control
T3 construct: purchased KINOMEscan (screening platform)
Procedure: as §1

FLT3(K663Q) = FLT3(K663Q) (Homo sapiens, UniProt P36888, K663Q); experiment: KINOMEscan competition binding; conditions: read-out: Percent Control
Procedure: as §1

EGFR(L858R, T790M) = target: T4, EGFR(L858R, T790M) (Homo sapiens, UniProt P00533, L858R/T790M); experiment: KINOMEscan competition binding; conditions: read-out: Percent Control
T4 construct: purchased KINOMEscan (screening platform)
Procedure: as §1

MAP3K2 = MAP3K2 (Homo sapiens, UniProt Q9Y2U5); experiment: KINOMEscan competition binding; conditions: read-out: Percent Control
Procedure: as §1

KIT(V559D, V654A) = KIT(V559D, V654A) (Homo sapiens, UniProt P10721, V559D/V654A); experiment: KINOMEscan competition binding; conditions: read-out: Percent Control
Procedure: as §1

EPHA3 = target: T5, EPHA3 (Homo sapiens, UniProt P29320); experiment: KINOMEscan competition binding; conditions: read-out: Percent Control
T5 construct: purchased KINOMEscan (screening service)
Procedure: as §1

RET = RET (Homo sapiens, UniProt P07949); experiment: KINOMEscan competition binding; conditions: read-out: Percent Control
Procedure: as §1

[3] = target: T6, ABL1(H396P)-phosphorylated (Homo sapiens, UniProt P00519, H396P); experiment: KINOMEscan competition binding; conditions: read-out: Percent Control
T6 construct: purchased KINOMEscan (panel service)
Procedure: as §1

ASK2 = target: T7, ASK2 (Homo sapiens, UniProt O95382); experiment: KINOMEscan competition binding; conditions: ASK2 (Entrez MAP3K6), read-out: Percent Control
T7 construct: purchased KINOMEscan (screening service)
Procedure: as §1

RIPK1 = target: T8, RIPK1 (Homo sapiens, UniProt Q13546); experiment: KINOMEscan competition binding; conditions: read-out: Percent Control
T8 construct: purchased KINOMEscan (screening platform)
Procedure: as §1

LYN = target: T9, LYN (Homo sapiens, UniProt P07948); experiment: KINOMEscan competition binding; conditions: read-out: Percent Control
T9 construct: purchased KINOMEscan (panel service)
Procedure: as §1

DDR1 = DDR1 (Homo sapiens, UniProt Q08345); experiment: KINOMEscan competition binding; conditions: read-out: Percent Control
Procedure: as §1

EPHA6 = EPHA6 (Homo sapiens, UniProt Q9UF33); experiment: KINOMEscan competition binding; conditions: read-out: Percent Control
Procedure: as §1

ERBB4 = ERBB4 (Homo sapiens, UniProt Q15303); experiment: KINOMEscan competition binding; conditions: read-out: Percent Control
Procedure: as §1

SIK2 = target: T10, SIK2 (Homo sapiens, UniProt Q9H0K1); experiment: KINOMEscan competition binding; conditions: read-out: Percent Control
T10 construct: purchased KINOMEscan (screening service)
Procedure: as §1

[4] = target: ABL1(F317I)-nonphosphorylated (Homo sapiens, UniProt P00519, F317I); experiment: KINOMEscan competition binding; conditions: read-out: Percent Control
Procedure: as §1

BaF3-BCR/ABL = target: T11, BaF3-BCR/ABL (Homo sapiens, UniProt P00519); experiment: Antiproliferative activity, kinase-dependent Ba/F3 cells (MTT/MTS); format: cell-based, murine; conditions: 48 hours, cell viability, read-out: BCR/ABL IC50
T11 construct: fused on or other part: P11274 (Breakpoint cluster region protein)
Summary of the method: (§2)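 Murine Ba/F3 cells transformed with BCR/ABL (p210) or BCR/ABL-T315I, grown in RPMI/10% FCS without IL3, were seeded at 20,000 cells/well. Viability was read by MTT/MTS. IC50 is the concentration reducing viability to 50% of DMSO vehicle control.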

BaF3-BCR/ABL-T315I = target: T12, BaF3-BCR/ABL-T315I (Homo sapiens, UniProt P00519, T315I, cells depend on it); experiment: as above; format: cell-based, murine; conditions: 48 hours, cell viability, read-out: BCR/ABL T315I IC50
T12 construct: fused on or other part: P11274 (Breakpoint cluster region protein)
Summary of the method: as §2

[5] = test system: SK-MEL-5, SK-MEL-28, and SK-MEL-30 cell lines; experiment: Melanoma cell proliferation; format: cell-based; conditions: SK-MEL-5, SK-MEL-28 (B-Raf V600E), SK-MEL-30 (N-Ras Q61K); FIG. 3
Procedure: The ability of IA-9 to treat melanoma was tested using the SK-MEL-5, SK-MEL-28, and SK-MEL-30 cell lines. SK-MEL-5 and SK-MEL-28 express mutant B-Raf (V600E) and wildtype N-Ras. SK-MEL-30 expresses wildtype B-Raf and mutant N-Ras (Q61K). Cell proliferation was tested using methods described herein.

T7 sequence (O95382 whole entry): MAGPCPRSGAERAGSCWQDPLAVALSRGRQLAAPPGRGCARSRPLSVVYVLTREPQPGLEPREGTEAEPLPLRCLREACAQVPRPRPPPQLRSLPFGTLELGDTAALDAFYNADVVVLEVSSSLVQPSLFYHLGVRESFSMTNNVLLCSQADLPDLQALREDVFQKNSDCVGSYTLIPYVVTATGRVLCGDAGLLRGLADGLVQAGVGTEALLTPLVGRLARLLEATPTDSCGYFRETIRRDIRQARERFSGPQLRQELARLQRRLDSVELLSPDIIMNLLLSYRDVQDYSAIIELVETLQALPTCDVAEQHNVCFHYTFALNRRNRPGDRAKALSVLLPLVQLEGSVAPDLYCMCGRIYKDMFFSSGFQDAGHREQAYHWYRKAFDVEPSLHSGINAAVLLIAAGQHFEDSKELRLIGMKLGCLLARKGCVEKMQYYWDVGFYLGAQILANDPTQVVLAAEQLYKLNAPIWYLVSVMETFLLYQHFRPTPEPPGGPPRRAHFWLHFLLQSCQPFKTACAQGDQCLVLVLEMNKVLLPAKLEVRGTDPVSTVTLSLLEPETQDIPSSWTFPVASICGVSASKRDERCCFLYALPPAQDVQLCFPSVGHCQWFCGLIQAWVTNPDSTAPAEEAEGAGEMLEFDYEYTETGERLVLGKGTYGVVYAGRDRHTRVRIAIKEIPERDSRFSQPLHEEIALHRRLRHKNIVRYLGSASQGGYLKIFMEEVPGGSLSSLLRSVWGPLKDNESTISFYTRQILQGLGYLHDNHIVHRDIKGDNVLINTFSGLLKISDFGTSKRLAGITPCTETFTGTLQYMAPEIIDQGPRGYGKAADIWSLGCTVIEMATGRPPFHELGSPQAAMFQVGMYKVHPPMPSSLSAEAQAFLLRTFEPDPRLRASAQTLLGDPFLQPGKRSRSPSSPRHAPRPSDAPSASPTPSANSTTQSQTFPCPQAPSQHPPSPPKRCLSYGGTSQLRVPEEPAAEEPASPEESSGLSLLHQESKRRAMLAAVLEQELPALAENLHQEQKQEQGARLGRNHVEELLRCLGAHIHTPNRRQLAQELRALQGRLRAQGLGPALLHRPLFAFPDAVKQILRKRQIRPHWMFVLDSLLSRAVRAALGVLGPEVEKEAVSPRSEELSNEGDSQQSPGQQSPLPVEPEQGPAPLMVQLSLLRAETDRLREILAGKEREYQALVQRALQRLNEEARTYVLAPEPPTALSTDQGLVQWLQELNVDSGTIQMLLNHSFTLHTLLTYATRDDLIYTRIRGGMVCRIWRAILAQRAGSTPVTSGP
Sequence of ERBB4 (Q15303 26-1308): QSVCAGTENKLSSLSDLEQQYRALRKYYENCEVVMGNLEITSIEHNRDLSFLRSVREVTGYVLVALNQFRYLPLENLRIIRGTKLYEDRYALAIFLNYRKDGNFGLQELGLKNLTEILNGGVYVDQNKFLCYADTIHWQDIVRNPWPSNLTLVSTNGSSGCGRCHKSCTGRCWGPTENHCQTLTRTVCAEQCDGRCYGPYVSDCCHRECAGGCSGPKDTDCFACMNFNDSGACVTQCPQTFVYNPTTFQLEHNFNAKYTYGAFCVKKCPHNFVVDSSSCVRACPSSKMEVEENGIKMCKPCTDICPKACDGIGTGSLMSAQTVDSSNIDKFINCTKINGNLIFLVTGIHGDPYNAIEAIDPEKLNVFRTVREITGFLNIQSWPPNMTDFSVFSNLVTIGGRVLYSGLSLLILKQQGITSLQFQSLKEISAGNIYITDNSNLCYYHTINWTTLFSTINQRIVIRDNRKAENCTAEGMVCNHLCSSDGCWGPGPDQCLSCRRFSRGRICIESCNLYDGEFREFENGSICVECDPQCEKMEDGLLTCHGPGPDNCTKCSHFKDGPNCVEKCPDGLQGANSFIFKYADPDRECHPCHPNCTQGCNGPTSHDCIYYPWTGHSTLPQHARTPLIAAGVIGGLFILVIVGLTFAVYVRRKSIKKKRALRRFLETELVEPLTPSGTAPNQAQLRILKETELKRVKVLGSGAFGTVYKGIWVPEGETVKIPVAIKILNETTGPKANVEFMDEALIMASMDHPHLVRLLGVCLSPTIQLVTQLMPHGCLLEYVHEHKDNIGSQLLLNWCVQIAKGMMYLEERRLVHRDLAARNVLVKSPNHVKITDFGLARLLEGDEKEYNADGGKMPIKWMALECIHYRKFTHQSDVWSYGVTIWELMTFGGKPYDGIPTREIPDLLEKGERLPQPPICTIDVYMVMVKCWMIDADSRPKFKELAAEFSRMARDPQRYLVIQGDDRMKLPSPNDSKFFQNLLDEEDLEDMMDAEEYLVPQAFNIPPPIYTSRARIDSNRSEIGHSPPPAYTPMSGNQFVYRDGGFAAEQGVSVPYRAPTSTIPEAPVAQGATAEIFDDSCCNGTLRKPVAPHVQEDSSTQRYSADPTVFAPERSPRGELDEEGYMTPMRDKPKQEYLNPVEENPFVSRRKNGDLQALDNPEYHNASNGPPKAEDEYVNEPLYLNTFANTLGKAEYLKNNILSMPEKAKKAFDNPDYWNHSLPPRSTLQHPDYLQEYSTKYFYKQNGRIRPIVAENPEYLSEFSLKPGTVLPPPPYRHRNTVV
Sequence of KIT(V559D, V654A) (P10721 26-976 V559D/V654A): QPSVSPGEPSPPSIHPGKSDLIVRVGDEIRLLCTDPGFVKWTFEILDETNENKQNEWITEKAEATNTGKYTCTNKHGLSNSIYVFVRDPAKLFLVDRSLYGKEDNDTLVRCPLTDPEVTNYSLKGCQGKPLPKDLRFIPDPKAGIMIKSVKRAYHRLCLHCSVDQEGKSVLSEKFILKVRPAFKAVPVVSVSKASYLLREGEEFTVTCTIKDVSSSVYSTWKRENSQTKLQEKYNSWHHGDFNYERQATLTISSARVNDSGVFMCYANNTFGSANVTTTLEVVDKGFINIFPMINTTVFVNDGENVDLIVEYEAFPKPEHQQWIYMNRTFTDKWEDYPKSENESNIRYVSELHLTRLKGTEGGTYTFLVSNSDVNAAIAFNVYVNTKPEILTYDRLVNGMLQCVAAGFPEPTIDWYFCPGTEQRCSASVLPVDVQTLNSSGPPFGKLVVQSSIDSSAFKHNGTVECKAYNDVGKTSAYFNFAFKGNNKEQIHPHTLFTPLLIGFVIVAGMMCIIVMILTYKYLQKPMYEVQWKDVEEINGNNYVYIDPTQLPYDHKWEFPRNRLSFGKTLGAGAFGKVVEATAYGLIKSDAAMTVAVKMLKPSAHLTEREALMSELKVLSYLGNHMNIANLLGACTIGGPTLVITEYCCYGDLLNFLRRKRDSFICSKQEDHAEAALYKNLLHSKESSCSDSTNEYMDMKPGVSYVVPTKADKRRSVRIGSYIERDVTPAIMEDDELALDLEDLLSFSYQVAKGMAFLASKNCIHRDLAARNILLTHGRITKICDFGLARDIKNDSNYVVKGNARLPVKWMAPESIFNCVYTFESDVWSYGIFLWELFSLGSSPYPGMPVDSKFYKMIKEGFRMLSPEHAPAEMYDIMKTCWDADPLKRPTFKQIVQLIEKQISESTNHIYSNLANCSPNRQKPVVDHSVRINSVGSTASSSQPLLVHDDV
T5 sequence (P29320 21-983): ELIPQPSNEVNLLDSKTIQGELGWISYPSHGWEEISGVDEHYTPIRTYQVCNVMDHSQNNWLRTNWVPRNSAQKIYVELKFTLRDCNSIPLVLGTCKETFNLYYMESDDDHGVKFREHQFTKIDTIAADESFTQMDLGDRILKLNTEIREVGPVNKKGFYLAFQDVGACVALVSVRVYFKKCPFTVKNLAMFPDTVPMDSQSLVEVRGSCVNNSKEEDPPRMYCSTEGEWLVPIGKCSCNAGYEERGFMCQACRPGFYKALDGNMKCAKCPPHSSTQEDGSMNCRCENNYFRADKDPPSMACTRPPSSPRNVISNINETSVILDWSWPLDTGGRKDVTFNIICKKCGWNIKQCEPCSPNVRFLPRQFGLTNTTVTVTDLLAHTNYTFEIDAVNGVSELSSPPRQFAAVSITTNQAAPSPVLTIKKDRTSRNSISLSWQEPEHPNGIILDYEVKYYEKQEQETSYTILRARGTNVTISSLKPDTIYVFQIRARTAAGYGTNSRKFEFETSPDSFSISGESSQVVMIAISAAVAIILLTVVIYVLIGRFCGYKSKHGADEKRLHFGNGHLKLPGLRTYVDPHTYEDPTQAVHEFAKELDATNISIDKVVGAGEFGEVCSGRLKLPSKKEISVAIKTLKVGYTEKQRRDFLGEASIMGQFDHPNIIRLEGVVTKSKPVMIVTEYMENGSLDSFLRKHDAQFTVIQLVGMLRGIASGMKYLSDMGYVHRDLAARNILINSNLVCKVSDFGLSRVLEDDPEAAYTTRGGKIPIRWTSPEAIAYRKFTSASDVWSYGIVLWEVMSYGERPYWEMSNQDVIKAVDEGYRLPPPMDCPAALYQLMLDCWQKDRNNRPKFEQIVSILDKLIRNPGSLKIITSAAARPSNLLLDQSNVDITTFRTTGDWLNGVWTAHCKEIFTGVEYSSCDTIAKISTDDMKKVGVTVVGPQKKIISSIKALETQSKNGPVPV
Sequence of MAP3K2 (Q9Y2U5 whole entry): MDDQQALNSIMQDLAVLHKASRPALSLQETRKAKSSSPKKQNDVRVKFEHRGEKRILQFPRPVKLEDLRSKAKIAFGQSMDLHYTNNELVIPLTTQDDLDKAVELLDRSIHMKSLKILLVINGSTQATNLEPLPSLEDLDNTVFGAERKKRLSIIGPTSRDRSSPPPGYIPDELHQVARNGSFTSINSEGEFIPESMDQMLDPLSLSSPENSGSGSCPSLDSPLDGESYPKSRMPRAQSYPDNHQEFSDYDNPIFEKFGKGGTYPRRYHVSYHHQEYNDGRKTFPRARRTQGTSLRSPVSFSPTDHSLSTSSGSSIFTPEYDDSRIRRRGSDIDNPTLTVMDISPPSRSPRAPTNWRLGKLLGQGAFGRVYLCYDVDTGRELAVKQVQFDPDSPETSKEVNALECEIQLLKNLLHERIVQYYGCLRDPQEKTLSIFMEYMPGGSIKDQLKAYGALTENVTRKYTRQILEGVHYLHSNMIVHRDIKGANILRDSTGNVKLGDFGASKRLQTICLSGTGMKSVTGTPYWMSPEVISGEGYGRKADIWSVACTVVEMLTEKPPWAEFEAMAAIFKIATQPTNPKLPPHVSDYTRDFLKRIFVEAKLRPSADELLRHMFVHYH

For Cc1ccc(Nc2ncc3c(n2)N(C)CN(c2cc(NC(=O)c4cccc(C(F)(F)F)c4)ccc2C)C3)cn1 [IA-9, N-(4-methyl-3-(1-methyl-7-((6-methylpyridin-3-yl)amino)-1,4-dihydropyrimido[4,5-d]pyrimidin-3(2H)-yl)phenyl)-3-(trifluoromethyl)benzamide], which remaining binding at 10 µM [1] is on record?
Its remaining binding at 10 µM is 2.6%.

And the remaining binding at 10 µM [2]?
The remaining binding at 10 µM was 1.2%.

What about the remaining binding at 10 µM (ABL1-nonphosphorylated) of the same compound?
The remaining binding at 10 µM was 0.3%.

And the remaining binding at 10 µM (ABL2)?
The remaining binding at 10 µM was 0.1%.

What about the remaining binding at 10 µM (MEK4) of the same compound?
Its remaining binding at 10 µM is 2%.

And the remaining binding at 10 µM (TAOK3)?
Its remaining binding at 10 µM is 29%.

What about the remaining binding at 10 µM (FLT3(K663Q)) of the same compound?
The remaining binding at 10 µM was 0.55%.

And the remaining binding at 10 µM (EGFR(L858R, T790M))?
The remaining binding at 10 µM was 24%.

What about the remaining binding at 10 µM (MAP3K2) of the same compound?
Its remaining binding at 10 µM is 5%.

And the remaining binding at 10 µM (KIT(V559D, V654A))?
The remaining binding at 10 µM was 0.35%.

And the remaining binding at 10 µM (EPHA3)?
The remaining binding at 10 µM was 11%.

What about the remaining binding at 10 µM (RET) of the same compound?
The remaining binding at 10 µM was 0%.

What about the remaining binding at 10 µM [3] of the same compound?
Its remaining binding at 10 µM is 0.15%.

What about the remaining binding at 10 µM (ASK2) of the same compound?
The remaining binding at 10 µM was 7%.

What about the remaining binding at 10 µM (RIPK1) of the same compound?
The remaining binding at 10 µM was 28%.

What about the remaining binding at 10 µM (LYN) of the same compound?
The remaining binding at 10 µM was 0.1%.

What about the remaining binding at 10 µM (DDR1) of the same compound?
The remaining binding at 10 µM was 1.1%.

What about the remaining binding at 10 µM (EPHA6) of the same compound?
Its remaining binding at 10 µM is 0%.

And the remaining binding at 10 µM (ERBB4)?
The remaining binding at 10 µM was 0%.

What about the remaining binding at 10 µM (SIK2) of the same compound?
The remaining binding at 10 µM was 21%.

What about the remaining binding at 10 µM [4] of the same compound?
Its remaining binding at 10 µM is 0%.

What about the GI50 (BaF3-BCR/ABL) of the same compound?
Its GI50 is 5 nM.

And the GI50 (BaF3-BCR/ABL-T315I)?
The GI50 was 651 nM.

What about the “reduction of proliferation of melanoma cells” value [5] of the same compound?
The value was “reduce the proliferation of melanoma cells”.
